Source: ChEMBL document CHEMBL2086223 (Bioorg Med Chem Lett, 2012)
Activity calls are given as the source filed them. The calls are words filed in the database; no cut-off is given here.

Assays:
[1] = biological target: T1, 5-hydroxytryptamine receptor 4 (Homo sapiens, UniProt Q13639)
[2] = (§1) Half life in rat liver microsomes
hERG (KCNH2) = hERG (KCNH2) (Homo sapiens, UniProt Q12809); assay: Inhibition of human ERG expressed in CHO cells at 3 uM; conditions: CHO cells expressing human ERG
[3] = biological target: T1, 5-hydroxytryptamine receptor 4; assay: Agonist activity at human recombinant 5HT4c receptor expressed in HEK293 cells at 10-fold physiological level assessed as accumulation of cAMP relative to 5HT; format: functional, cell-based
Homo sapiens = species on record: Homo sapiens; assay: Selectivity ratio of Ki for human 5HT3A receptor to Ki for human 5HT4c receptor
[4] = biological target: T1, 5-hydroxytryptamine receptor 4; assay: biochemical
Description: Displacement of [3H]GR113808 from human recombinant 5HT4c receptor expressed in HEK293 cells

[5] = Permeability across human Caco2 cells; conditions: Caco-2
Rattus norvegicus = assay: Induction of 5HT4-receptor mediated esophagal relaxation in iv dosed Sprague-Dawley rat; format: functional
[6] = biological target: T2, 5-hydroxytryptamine receptor 2C (Homo sapiens) (UniProt P28335); assay: Inhibition of 5HT2C receptor at 10 uM
T2 sequence (whole entry): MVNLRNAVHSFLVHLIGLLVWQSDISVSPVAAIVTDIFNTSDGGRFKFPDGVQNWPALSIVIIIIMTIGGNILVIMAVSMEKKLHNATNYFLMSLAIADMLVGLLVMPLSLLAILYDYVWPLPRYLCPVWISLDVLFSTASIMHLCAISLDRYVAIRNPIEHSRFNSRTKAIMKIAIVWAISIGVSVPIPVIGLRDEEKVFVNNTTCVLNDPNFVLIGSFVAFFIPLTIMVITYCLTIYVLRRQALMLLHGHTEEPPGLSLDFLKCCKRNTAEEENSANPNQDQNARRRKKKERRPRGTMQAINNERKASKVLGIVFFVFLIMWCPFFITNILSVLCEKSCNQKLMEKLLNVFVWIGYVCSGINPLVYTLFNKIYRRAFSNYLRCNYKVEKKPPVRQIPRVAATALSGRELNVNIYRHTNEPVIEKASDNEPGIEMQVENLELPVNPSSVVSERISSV

[7] = biological target: 5-hydroxytryptamine receptor 4 (Cavia porcellus, UniProt O70528); assay: Agonist activity at 5HT4 receptor in guinea pig colonic longitudinal muscle/myenteric plexus assessed as contraction
Sequence of 5-hydroxytryptamine receptor 4 (Cavia porcellus, UniProt O70528) (O70528 whole entry): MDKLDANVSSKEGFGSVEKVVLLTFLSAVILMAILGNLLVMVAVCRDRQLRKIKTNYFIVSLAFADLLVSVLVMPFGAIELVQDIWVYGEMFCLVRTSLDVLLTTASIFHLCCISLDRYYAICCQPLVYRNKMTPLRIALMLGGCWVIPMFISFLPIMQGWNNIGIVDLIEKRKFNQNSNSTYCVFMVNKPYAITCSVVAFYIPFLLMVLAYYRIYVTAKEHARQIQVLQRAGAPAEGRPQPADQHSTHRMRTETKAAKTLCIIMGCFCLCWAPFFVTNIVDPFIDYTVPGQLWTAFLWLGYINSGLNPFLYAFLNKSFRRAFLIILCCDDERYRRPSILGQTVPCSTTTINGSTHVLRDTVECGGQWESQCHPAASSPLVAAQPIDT

[8] = biological target: 5-hydroxytryptamine receptor 2A (Homo sapiens) (UniProt P28223); assay: Inhibition of 5HT2A receptor at 10 uM
Sequence of 5-hydroxytryptamine receptor 2A (Homo sapiens) (P28223 whole entry): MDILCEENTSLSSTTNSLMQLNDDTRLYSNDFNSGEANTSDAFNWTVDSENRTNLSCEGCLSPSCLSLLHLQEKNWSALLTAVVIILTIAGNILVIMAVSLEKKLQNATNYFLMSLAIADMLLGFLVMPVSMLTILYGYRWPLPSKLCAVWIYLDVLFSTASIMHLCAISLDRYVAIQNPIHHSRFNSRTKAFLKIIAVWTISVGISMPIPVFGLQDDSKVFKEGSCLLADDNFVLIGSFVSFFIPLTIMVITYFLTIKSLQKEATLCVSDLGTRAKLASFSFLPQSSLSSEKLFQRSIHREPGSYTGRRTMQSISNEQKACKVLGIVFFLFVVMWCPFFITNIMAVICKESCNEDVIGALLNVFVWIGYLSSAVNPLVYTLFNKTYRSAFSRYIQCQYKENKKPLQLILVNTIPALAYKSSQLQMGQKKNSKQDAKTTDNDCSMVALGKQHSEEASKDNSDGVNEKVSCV

[9] = biological target: 5-hydroxytryptamine receptor 5A (Homo sapiens) (UniProt P47898); assay: Inhibition of 5HT5A receptor at 10 uM
Sequence of 5-hydroxytryptamine receptor 5A (Homo sapiens) (P47898 whole entry): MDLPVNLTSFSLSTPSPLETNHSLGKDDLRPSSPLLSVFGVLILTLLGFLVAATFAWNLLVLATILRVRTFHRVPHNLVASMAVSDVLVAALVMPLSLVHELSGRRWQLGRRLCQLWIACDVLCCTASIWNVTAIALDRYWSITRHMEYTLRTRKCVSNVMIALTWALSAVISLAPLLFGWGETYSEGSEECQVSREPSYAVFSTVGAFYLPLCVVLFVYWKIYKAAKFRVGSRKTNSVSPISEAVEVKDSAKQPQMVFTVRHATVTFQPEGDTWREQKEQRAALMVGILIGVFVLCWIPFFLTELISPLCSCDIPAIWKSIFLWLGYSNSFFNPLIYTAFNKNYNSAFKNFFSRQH

[10] = Elimination half life in healthy human administered QD; format: ADME, organism-based; conditions: in vivo, read-out: beta t1/2 (converted)
[11] = biological target: 5-hydroxytryptamine receptor 1D (Homo sapiens) (UniProt P28221); assay: Inhibition of 5HT1D receptor at 10 uM
Sequence of 5-hydroxytryptamine receptor 1D (Homo sapiens) (P28221 whole entry): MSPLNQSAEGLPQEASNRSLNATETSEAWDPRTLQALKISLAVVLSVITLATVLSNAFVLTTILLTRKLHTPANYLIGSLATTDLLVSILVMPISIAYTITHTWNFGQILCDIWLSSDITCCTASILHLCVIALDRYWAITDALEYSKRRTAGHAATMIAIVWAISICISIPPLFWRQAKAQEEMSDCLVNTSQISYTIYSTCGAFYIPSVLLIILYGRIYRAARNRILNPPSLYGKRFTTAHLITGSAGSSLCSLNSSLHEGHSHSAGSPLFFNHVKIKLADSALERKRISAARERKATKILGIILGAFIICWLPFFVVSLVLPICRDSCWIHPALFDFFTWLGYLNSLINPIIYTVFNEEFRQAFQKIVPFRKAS

[12] = Half life in Sprague-Dawley rat at 5 mg/kg, po; format: ADME, organism-based; parameters: dose 5 mg/kg, route oral; conditions: in vivo
in vivo [13] = conditions: Sprague-Dawley, rat, po, 5 mg/kg
[14] = biological target: T3, 5-hydroxytryptamine receptor 7 (Homo sapiens, UniProt P34969); assay: Inhibition of 5HT7 receptor at 10 uM
T3 sequence (P34969 whole entry): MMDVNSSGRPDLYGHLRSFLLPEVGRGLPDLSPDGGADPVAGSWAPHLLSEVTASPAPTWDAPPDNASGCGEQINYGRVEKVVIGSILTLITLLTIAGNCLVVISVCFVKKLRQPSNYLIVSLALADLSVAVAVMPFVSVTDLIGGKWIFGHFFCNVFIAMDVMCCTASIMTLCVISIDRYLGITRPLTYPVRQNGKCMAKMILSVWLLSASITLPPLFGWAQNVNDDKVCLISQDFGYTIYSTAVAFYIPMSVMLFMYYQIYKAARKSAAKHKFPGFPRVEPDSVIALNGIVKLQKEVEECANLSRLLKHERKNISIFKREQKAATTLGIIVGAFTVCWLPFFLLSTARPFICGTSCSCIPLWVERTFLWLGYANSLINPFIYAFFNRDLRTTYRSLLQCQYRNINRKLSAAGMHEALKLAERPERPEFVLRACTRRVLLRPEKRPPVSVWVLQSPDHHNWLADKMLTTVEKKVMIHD

[15] = biological target: 5-hydroxytryptamine receptor 6 (Homo sapiens) (UniProt P50406); assay: Inhibition of 5HT6 receptor at 10 uM
Sequence of 5-hydroxytryptamine receptor 6 (Homo sapiens) (P50406 whole entry): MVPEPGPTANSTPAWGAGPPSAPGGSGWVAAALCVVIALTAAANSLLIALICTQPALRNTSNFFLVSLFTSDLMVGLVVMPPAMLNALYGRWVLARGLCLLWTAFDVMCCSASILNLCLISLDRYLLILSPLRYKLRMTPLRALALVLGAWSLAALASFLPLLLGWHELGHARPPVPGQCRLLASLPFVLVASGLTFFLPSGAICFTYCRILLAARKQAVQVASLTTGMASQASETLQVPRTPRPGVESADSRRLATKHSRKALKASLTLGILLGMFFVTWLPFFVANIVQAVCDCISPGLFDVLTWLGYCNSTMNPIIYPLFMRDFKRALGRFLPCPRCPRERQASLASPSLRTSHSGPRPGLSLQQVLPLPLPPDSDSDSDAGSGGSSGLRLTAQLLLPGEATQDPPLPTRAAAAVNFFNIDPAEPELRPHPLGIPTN

[16] = biological target: T4, 5-hydroxytryptamine receptor 1A (Homo sapiens) (UniProt P08908); assay: Inhibition of 5HT1A receptor at 10 uM
T4 sequence (whole entry): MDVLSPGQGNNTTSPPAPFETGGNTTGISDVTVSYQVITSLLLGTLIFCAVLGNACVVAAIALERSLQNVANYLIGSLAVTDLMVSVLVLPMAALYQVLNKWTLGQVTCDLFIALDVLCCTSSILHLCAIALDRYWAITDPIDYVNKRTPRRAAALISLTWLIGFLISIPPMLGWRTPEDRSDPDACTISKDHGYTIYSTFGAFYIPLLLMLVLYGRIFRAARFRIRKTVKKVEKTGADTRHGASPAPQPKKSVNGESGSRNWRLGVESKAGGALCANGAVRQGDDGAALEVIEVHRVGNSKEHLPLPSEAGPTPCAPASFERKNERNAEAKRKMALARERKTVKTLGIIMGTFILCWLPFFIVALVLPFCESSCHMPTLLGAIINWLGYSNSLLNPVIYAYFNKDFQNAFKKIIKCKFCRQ

[17] = biological target: T3, 5-hydroxytryptamine receptor 7; assay: Binding affinity to 5HT7 receptor
Cavia porcellus [18] = assay: Prokinetic activity in guinea pig colon assessed as decrease in carmine red dye transit time at 0.3 mg/kg, sc relative to vehicle-treated control; format: functional, organism-based; parameters: dose 0.3 mg/kg
in vivo [19] = conditions: Sprague-Dawley, rat, po, 5 mg/kg; remark: listed apart in the source
[20] = biological target: 5-hydroxytryptamine receptor 2B (Homo sapiens) (UniProt P41595); assay: Inhibition of 5HT2B receptor at 10 uM
Sequence of 5-hydroxytryptamine receptor 2B (Homo sapiens) (P41595 whole entry): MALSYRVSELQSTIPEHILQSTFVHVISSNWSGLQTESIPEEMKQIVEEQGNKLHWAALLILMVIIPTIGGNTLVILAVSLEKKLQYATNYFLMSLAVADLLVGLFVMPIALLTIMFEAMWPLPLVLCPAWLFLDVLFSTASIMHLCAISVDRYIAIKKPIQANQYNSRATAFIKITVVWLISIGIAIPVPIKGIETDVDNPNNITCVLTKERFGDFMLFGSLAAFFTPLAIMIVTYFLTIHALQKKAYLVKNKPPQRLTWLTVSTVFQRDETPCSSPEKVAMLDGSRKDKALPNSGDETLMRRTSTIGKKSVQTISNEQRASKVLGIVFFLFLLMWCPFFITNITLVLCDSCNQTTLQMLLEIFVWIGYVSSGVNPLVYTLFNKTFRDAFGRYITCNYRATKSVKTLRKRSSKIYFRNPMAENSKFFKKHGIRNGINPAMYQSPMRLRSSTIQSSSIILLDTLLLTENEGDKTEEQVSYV

[21] = biological target: 5-hydroxytryptamine receptor 1B (Homo sapiens) (UniProt P28222); assay: Inhibition of 5HT1B receptor at 10 uM
Sequence of 5-hydroxytryptamine receptor 1B (Homo sapiens) (P28222 whole entry): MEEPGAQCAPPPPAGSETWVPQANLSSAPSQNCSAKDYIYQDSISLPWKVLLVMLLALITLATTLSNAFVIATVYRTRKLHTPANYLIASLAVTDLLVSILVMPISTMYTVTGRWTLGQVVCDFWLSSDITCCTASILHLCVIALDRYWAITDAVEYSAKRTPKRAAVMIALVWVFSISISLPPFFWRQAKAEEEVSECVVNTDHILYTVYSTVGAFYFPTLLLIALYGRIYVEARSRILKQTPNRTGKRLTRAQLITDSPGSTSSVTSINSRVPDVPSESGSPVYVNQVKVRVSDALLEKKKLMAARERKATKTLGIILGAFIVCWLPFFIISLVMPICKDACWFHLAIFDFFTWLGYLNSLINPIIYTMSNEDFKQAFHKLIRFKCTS

[22] = biological target: T5, 5-hydroxytryptamine receptor 3A (Homo sapiens) (UniProt P46098); assay: Inhibition of 5HT3A receptor at 10 uM
T5 sequence (whole entry): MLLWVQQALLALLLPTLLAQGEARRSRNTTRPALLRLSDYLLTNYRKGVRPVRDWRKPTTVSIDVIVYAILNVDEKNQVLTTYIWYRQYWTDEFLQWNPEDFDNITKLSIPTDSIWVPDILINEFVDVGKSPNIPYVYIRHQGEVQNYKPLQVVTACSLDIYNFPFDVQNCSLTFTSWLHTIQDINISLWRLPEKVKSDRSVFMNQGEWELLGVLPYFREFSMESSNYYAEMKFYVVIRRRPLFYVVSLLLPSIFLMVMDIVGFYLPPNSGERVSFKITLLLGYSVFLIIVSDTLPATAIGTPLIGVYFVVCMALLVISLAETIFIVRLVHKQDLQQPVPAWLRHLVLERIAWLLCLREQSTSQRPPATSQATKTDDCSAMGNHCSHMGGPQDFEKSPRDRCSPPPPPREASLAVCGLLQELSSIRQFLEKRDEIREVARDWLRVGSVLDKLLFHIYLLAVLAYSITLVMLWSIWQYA

Cavia porcellus [23] = assay: Prokinetic activity in sc dosed guinea pig colon assessed as increase in distance traveled by carmine red dye after 60 mins relative to vehicle-treated control; format: functional, organism-based
Liver microsomes = assay: as §1; conditions: microsomes

Sequence of hERG (KCNH2) (Q12809 whole entry): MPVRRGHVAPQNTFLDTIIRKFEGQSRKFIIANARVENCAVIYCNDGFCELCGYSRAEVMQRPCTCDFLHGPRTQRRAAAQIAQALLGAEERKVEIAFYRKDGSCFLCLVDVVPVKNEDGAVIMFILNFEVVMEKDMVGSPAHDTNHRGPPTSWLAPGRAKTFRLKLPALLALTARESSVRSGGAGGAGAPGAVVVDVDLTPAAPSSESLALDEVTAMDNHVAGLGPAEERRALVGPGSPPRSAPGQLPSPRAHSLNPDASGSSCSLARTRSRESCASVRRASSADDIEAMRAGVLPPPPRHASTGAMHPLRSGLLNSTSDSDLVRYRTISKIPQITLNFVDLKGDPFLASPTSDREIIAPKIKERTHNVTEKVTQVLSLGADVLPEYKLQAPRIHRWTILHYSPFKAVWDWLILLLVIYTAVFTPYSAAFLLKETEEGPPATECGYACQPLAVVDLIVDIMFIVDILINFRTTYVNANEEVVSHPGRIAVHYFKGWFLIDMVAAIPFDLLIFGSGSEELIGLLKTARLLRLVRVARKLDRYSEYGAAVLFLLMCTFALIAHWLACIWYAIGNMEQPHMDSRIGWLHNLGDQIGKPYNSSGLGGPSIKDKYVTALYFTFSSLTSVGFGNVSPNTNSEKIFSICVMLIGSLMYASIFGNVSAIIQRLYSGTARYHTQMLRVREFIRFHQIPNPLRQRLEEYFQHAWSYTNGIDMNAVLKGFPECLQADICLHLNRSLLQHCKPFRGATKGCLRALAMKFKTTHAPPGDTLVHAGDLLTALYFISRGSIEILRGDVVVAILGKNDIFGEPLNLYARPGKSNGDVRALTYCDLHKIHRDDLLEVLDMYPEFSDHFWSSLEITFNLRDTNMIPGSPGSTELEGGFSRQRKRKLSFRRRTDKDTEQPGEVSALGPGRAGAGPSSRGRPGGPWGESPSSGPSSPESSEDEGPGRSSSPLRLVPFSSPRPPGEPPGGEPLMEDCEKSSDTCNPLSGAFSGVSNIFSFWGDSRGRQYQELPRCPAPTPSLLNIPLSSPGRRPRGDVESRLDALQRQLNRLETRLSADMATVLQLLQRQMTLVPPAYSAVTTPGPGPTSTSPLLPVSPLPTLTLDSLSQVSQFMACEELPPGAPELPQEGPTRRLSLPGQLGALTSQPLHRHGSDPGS
T1 sequence (Q13639 whole entry): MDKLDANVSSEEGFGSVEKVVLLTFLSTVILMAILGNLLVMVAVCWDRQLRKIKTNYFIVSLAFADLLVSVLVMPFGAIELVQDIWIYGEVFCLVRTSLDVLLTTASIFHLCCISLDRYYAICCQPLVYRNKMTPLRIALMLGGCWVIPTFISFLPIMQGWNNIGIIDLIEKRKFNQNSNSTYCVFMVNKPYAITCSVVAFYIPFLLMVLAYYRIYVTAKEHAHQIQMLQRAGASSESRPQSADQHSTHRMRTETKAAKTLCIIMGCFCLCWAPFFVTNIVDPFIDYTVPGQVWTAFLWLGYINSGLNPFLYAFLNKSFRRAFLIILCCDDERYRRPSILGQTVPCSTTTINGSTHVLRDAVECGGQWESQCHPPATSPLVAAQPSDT

EC50 [1] | half-life ([2]; liver microsomes) | Intrinsic activity [3] | Ratio Ki (Homo sapiens) | Ki [4] | Papp [5] | SMILES | other results
12.6 nM | > 1.5 h | 95% | 1500 | 39.8 nM | 16 ×10⁻⁶ cm/s | CC(=O)N(C)CC(O)CN1[C@@H]2CC[C@H]1C[C@@H](NC(=O)c1cc3ccccc3n(C(C)C)c1=O)C2 (mixture of isomers) | inhibition at 3 µM (hERG (KCNH2)): 11%
12.6 nM | > 1.5 h | 82% | 2400 | 25.1 nM |  | CNC(=O)NCC(O)CN1[C@@H]2CC[C@H]1C[C@@H](NC(=O)c1cc3ccccc3n(C(C)C)c1=O)C2 (mixture of isomers) | 
10 nM | > 1.5 h | 84% | 710 | 39.8 nM | 35 ×10⁻⁶ cm/s | COC(=O)N(C)CC(O)CN1[C@@H]2CC[C@H]1C[C@@H](NC(=O)c1cc3ccccc3n(C(C)C)c1=O)C2 (mixture of isomers) | inhibition at 3 µM (hERG (KCNH2)): 40%
7.94 nM |  | 107% | 1200 | 20 nM |  | CC(C)n1c(=O)c(C(=O)N[C@H]2C[C@H]3CC[C@@H](C2)N3CC(O)CNS(C)(=O)=O)cc2ccccc21 (mixture of isomers) | inhibition at 3 µM (hERG (KCNH2)): 10%
20 nM | > 1.5 h | 87% | 260 | 50.1 nM | 33 ×10⁻⁶ cm/s | CC(C)n1c(=O)c(C(=O)N[C@H]2C[C@H]3CC[C@@H](C2)N3CC(O)CN(C)C(=O)N(C)C)cc2ccccc21 (mixture of isomers) | inhibition at 3 µM (hERG (KCNH2)): 64%
20 nM |  | 95% | 1800 | 50.1 nM | 1 ×10⁻⁶ cm/s | CC(C)n1c(=O)c(C(=O)N[C@H]2C[C@H]3CC[C@@H](C2)N3CC(O)CN(C)C(N)=O)cc2ccccc21 (mixture of isomers) | half-life ([2]; microsomes): > 1.5 h
6.31 nM | > 1.5 h | 96% | 2200 | 31.6 nM | 6 ×10⁻⁶ cm/s | CC(=O)NCC(O)CN1[C@@H]2CC[C@H]1C[C@@H](NC(=O)c1cc3ccccc3n(C(C)C)c1=O)C2 (mixture of isomers) | 
 |  |  | 1600 | 50.1 nM | 35 ×10⁻⁶ cm/s | COC(=O)NCC(O)CN1[C@@H]2CC[C@H]1C[C@@H](NC(=O)c1cc3ccccc3n(C(C)C)c1=O)C2 (mixture of isomers) | half-life ([2]; microsomes): > 1.5 h; inhibition at 3 µM (hERG (KCNH2)): 74%
 |  | 71 |  |  |  | COc1cc(N)c(Cl)cc1C(=O)N[C@H]1CCN(CCCOc2ccc(F)cc2)C[C@H]1OC (relative stereo) [REL-CISAPRIDE] | t1/2 (Liver microsomes): 0.783 h
 | > 1.5 h |  | 860 | 100 nM | 3 ×10⁻⁶ cm/s | CC(C)n1c(=O)c(C(=O)N[C@H]2C[C@H]3CC[C@@H](C2)N3CC(O)CNC(=O)N(C)C)cc2ccccc21 (mixture of isomers) | 
5.01 nM | > 1.5 h | 82% | 3300 | 15.8 nM |  | CC(C)n1c(=O)c(C(=O)N[C@H]2C[C@H]3CC[C@@H](C2)N3CC(O)CNC(N)=O)cc2ccccc21 (mixture of isomers) | 
31.6 nM |  | 95% | 870 | 100 nM |  | CNC(=O)N(C)CC(O)CN1[C@@H]2CC[C@H]1C[C@@H](NC(=O)c1cc3ccccc3n(C(C)C)c1=O)C2 (mixture of isomers) | 

SMILES | EC50 [1] | half-life ([2]; liver microsomes) | Intrinsic activity [3] | Ratio Ki (Homo sapiens) | Ki [4] | Papp [5] | other results
CCCCCNC(=N)N/N=C/c1c[nH]c2ccc(OC)cc12 [TEGASEROD] | 2.51 nM | > 1.5 h | 92% | 580 |  |  | ED50 (Rattus norvegicus): 0.011 mg/kg
CC(C)n1c(=O)c(C(=O)N[C@H]2C[C@H]3CC[C@@H](C2)N3C[C@@H](O)CN2CCN(S(C)(=O)=O)CC2)cc2ccccc21 |  |  | 114% | 7400 |  |  | half-life ([2]; microsomes): > 1.5 h
CC(C)n1c(=O)c(C(=O)N[C@H]2C[C@H]3CC[C@@H](C2)N3C[C@@H](O)CN(C)S(C)(=O)=O)cc2ccccc21 |  | > 1.5 h | 95% |  |  |  | inhibition [6]: < 50%; EC50 [7]: 12.6 nM; inhibition [8]: < 50%; inhibition [9]: < 50%; half-life [10]: 12 h; inhibition [11]: < 50%; half-life [12]: 1.9 h; AUC(0-t) (in vivo [13]): 460 ng·h/mL; inhibition [14]: < 50%; Activity (Rattus norvegicus): Dose-dependent effect; ED50 (Rattus norvegicus): 0.025 mg/kg; inhibition [15]: < 50%; inhibition [16]: < 50%; Ki [17]: < 100 nM; Activity (Cavia porcellus [18]): Active; Cmax (in vivo [19]): 160 ng/mL; inhibition [20]: < 50%; inhibition [21]: < 50%; inhibition [22]: < 50%; Activity (Cavia porcellus [23]): Active
CC(=O)N1CCN(CCN2[C@@H]3CC[C@H]2C[C@@H](NC(=O)c2nn(C(C)C)c4ccccc24)C3)CC1 |  | > 1.5 h |  | 980 |  |  | 
CC(C)n1c(=O)c(C(=O)N[C@H]2C[C@H]3CC[C@@H](C2)N3C[C@H](O)CN(C)S(C)(=O)=O)cc2ccccc21 |  | > 1.5 h | 97% |  |  |  | 
CC(C)n1c(=O)c(C(=O)N[C@H]2C[C@H]3CC[C@@H](C2)N3CC(O)CN(C)S(C)(=O)=O)cc2ccccc21 (mixture of isomers) |  | > 1.5 h | 96% |  |  |  | 
